In US10947216B2, “Amide compounds and method for making and using” (Rigel Pharmaceuticals, Inc., priority 2016, dated 2021) one finds EC50 data, which are given here for 32 compounds.

In general, EC50 refers to the concentration needed to bring the measured effect to its halfway point.

Counter-ions that a name gives are not always drawn.

This experiment deals with IL-23p19. Briefly: LPS Induced IL23p19 in THP-1 Cells (with IFNγ Primed) Assay. In kind it is cell-based, human. The following applies: Homo sapiens, THP-1, THP-1 cells, IFNγ (50 ng/mL) primed, 1 hour compound pre-incubation, LPS 1 ug/mL 18 hours, 10 pt; read-out: IL23-p19 ELISA, THP1-IFNy, LPS, 10 pt EC50. The procedure:
LPS Induced IL23p19 in THP-1 Cells (with IFNγ Primed) Assay
Method THP-1 Cells Stimulation:
On day 1, 50K/well THP-1 cells were seeded and primed with IFNγ (50 ng/mL) in 384-well plates for about 18 hours in RPMI media with 10% FBS. […] 50 μL/well 2× compound was added to 50 μL/well THP-1 cells (with IFNγ primed) in duplicate in 384 well tissue culture plates. […] Day 3, after stimulation for 18 hours at 37° C., 5% CO2, the assay plate was centrifuged and 70 μL/well supernatant was harvested. IL-23p19 protein in 70 μL/well of supernatant was measured by sandwich ELISA, and 25 μl/well Cell Titer Glo reagent was added to the remaining cells to measure compound toxicity.
Human IL-23p19 Sandwich ELISA:
Maxisorp immuno ELISA plates were pre-coated with 25 μL/well of anti-IL-23p19 capture antibody (2.5 ug/mL) in PBS overnight at room temperature. After washing with 1×PBST, the plates were blocked using 100 μL/well of 1% BSA in PBS for 2 hours at room temperature. The plates were washed three times with 1×PBST and 70 μL/well supernatant were added. The plates were incubated at room temperature for 2 hours with shaking and washed three times with 1×PBST. 25 μL/well of biotin labeled anti-IL-12(p40/p70) detection antibody (100 ng/mL) in PBS with 1% BSA was added and the plates were incubated at room temperature for 2 hours with shaking. After washing three times with 1×PBST, 25 μL/well of streptavidin-HRP (1:200) in PBS with 1% BSA was added and the plates were incubated at room temperature for 20 minutes with shaking. The plates were washed three times with 1×PBST and 25 μL/well of Super Signal ELISA Pico Chemiluminescent Substrate were added. The plates were read with a luminometer, and the chemiluminescence values were entered into Athena (Rigel) for curve fitting, EC50 calculation, and database storage.
For orientation: In an ELISA, binding on a coated surface is turned into a signal by an enzyme label.

On to `Cn1cc(NC(=O)c2cccc(-c3cncc(F)c3)n2)c(-c2ccccn2)n1` [Compound I-3, 5′-fluoro-N-(1-methyl-3-(pyridin-2-yl)-1H-pyrazol-4-yl)-[2,3′-bipyridine]-6-carboxamide], for which the 50% effective concentration (EC50) worked out at 21.5 µM.
As to `Cn1cc(NC(=O)c2cccc(-c3cncc(C#N)c3)n2)c(-c2ccccn2)n1` [Compound I-4, 5′-cyano-N-(1-methyl-3-(pyridin-2-yl)-1H-pyrazol-4-yl)-[2,3′-bipyridine]-6-carboxamide], the EC50 came out at 1900 µM.
Regarding `Cn1cc(NC(=O)c2cccc(-c3cncnc3)n2)c(-c2ccccn2)n1` [Compound I-5, N-(1-methyl-3-(pyridin-2-yl)-1H-pyrazol-4-yl)-6-(pyrimidin-5-yl)picolinamide], the half-maximal effective concentration (EC50) turned out to be 40.1 µM.
Under `Cn1cc(NC(=O)c2cccc(-c3ccc[nH]3)n2)c(-c2ccccn2)n1` [Compound I-10, N-(1-methyl-3-(pyridin-2-yl)-1H-pyrazol-4-yl)-6-(1H-pyrrol-2-yl)picolinamide] stands 655 µM.
As for `Cn1cc(NC(=O)c2cccc(-c3cncc(C(C)(C)O)c3)n2)c(-c2ccccn2)n1` [Compound I-14, 5′-(2-hydroxypropan-2-yl)-N-(1-methyl-3-(pyridin-2-yl)-1H-pyrazol-4-yl)-[2,3′-bipyridine]-6-carboxamide], the half-maximal effective concentration (EC50) worked out at 1.52 µM.
For `Cc1cc(-c2cccc(C(=O)Nc3cn(C)nc3-c3ccccn3)n2)ccn1` [Compound I-15, 2′-methyl-N-(1-methyl-3-(pyridin-2-yl)-1H-pyrazol-4-yl)-[2,4′-bipyridine]-6-carboxamide], the EC50 came out at 63.6 µM.
Under `Cn1cc(NC(=O)c2cccc(-c3cncc(C(F)(F)F)c3)n2)c(-c2ccccn2)n1` [Compound I-17, N-(1-methyl-3-(pyridin-2-yl)-1H-pyrazol-4-yl)-5′-(trifluoromethyl)-[2,3′-bipyridine]-6-carboxamide] stands 58.3 µM.
The figure for `COc1ccc(-c2cccc(C(=O)Nc3cn(C)nc3-c3ccccn3)n2)cn1` [Compound I-20, 6′-methoxy-N-(1-methyl-3-(pyridin-2-yl)-1H-pyrazol-4-yl)-[2,3′-bipyridine]-6-carboxamide] is 128 µM.
As for `COc1cc(-c2cccc(C(=O)Nc3cn(C)nc3-c3ccccn3)n2)ccn1` [Compound I-21, 2′-methoxy-N-(1-methyl-3-(pyridin-2-yl)-1H-pyrazol-4-yl)-[2,4′-bipyridine]-6-carboxamide], the concentration giving a half-maximal response (EC50) came out at 398 µM.
Under `Cn1cc(NC(=O)c2cccc(-c3cncc(OCC(F)(F)F)c3)n2)c(-c2ccccn2)n1` [Compound I-24, N-(1-methyl-3-(pyridin-2-yl)-1H-pyrazol-4-yl)-5′-(2,2,2-trifluoroethoxy)-[2,3′-bipyridine]-6-carboxamide] stands 101 µM; under `Cn1cc(NC(=O)c2cccc(-c3cncc(N4CCOCC4)c3)n2)c(-c2ccccn2)n1` [Compound I-37, N-(1-methyl-3-(pyridin-2-yl)-1H-pyrazol-4-yl)-5′-morpholino-[2,3′-bipyridine]-6-carboxamide], 0.587 µM.
In the case of `Cn1cc(NC(=O)c2cccc(-c3cncc(S(C)(=O)=O)c3)n2)c(-c2ccccn2)n1` [Compound I-39, N-(1-methyl-3-(pyridin-2-yl)-1H-pyrazol-4-yl)-5′-(methylsulfonyl)-[2,3′-bipyridine]-6-carboxamide], the EC50 was determined as 1.39 µM.
The figure for `Cn1cc(NC(=O)c2cccc(-c3ccnc(C(N)=O)c3)n2)c(-c2ccccn2)n1` [Compound I-41, N6-(1-methyl-3-(pyridin-2-yl)-1H-pyrazol-4-yl)-[2,4-bipyridine]-2′,6-dicarboxamide] is 116 µM.
Consider `Cn1cc(NC(=O)c2cccc(-c3ccnc(C#N)c3)n2)c(-c2ccccn2)n1` [Compound I-42, 2′-cyano-N-(1-methyl-3-(pyridin-2-yl)-1H-pyrazol-4-yl)-[2,4′-bipyridine]-6-carboxamide], for which the half-maximal effective concentration (EC50) came out at 25.5 µM.
Turning to `Cn1cc(NC(=O)c2cccc(-c3cnc4cc[nH]c4c3)n2)c(-c2ccccn2)n1` [Compound I-45, N-(1-methyl-3-(pyridin-2-yl)-1H-pyrazol-4-yl)-6-(1H-pyrrolo[3,2-b]pyridin-6-yl)picolinamide], the half-maximal effective concentration (EC50) amounted to 3.46 µM.
Turning to `Cn1cc(NC(=O)c2cccc(-c3ccc4[nH]ccc4c3)n2)c(-c2ccccn2)n1` [Compound I-46, 6-(1H-indol-5-yl)-N-(1-methyl-3-(pyridin-2-yl)-1H-pyrazol-4-yl)picolinamide], the concentration for a half-maximal effect (EC50) amounted to 3.5 µM.
As to `Cn1cc(NC(=O)c2cccc(-c3ccc4cc[nH]c4c3)n2)c(-c2ccccn2)n1` [Compound I-47, 6-(1H-indol-6-yl)-N-(1-methyl-3-(pyridin-2-yl)-1H-pyrazol-4-yl)picolinamide], the 50% effective concentration (EC50) turned out to be 3.6 µM.
The figure for `Cc1cccc(-c2cccc(C(=O)Nc3cn(C)nc3-c3ccccn3)n2)c1` [Compound I-49, N-(1-methyl-3-(pyridin-2-yl)-1H-pyrazol-4-yl)-6-(m-tolyl)picolinamide] is 72.1 µM; for `Cc1ccc(-c2cccc(C(=O)Nc3cn(C)nc3-c3ccccn3)n2)cc1` [Compound I-50, N-(1-methyl-3-(pyridin-2-yl)-1H-pyrazol-4-yl)-6-(p-tolyl)picolinamide] it is 5.44 µM; for `COc1cccc(-c2cccc(C(=O)Nc3cn(C)nc3-c3ccccn3)n2)c1` [Compound I-51, 6-(3-methoxyphenyl)-N-(1-methyl-3-(pyridin-2-yl)-1H-pyrazol-4-yl)picolinamide] it is 59.1 µM.
In the case of `Cn1cc(NC(=O)c2cccc(-c3cccc(N)c3)n2)c(-c2ccccn2)n1` [Compound I-57, 6-(3-aminophenyl)-N-(1-methyl-3-(pyridin-2-yl)-1H-pyrazol-4-yl)picolinamide], the concentration giving a half-maximal response (EC50) turned out to be 5.27 µM.
For the compound `CNc1cccc(-c2cccc(C(=O)Nc3cn(C)nc3-c3ccccn3)n2)c1` [Compound I-58, N-(1-methyl-3-(pyridin-2-yl)-1H-pyrazol-4-yl)-6-(3-(methylamino)phenyl)picolinamide], the concentration for a half-maximal effect (EC50) was 15.2 µM.
Under `Cn1cc(NC(=O)c2cccc(-c3cccc(NS(C)(=O)=O)c3)n2)c(-c2ccccn2)n1` [Compound I-60, N-(1-methyl-3-(pyridin-2-yl)-1H-pyrazol-4-yl)-6-(3-(methylsulfonamido)phenyl)picolinamide] stands 14.8 µM; under `Cn1cc(NC(=O)c2cccc(C3=CCN(C(=O)OC(C)(C)C)CC3)n2)c(-c2ccccn2)n1` [Compound I-61, tert-butyl 6-((1-methyl-3-(pyridin-2-yl)-1H-pyrazol-4-yl)carbamoyl)-3′,6′-dihydro-[2,4′-bipyridine]-1′(2′H)-carboxylate], 22.3 µM; under `Cn1cc(NC(=O)c2cccc(C3=CCNCC3)n2)c(-c2ccccn2)n1` [Compound I-62, N-(1-methyl-3-(pyridin-2-yl)-1H-pyrazol-4-yl)-1′,2′,3′,6′-tetrahydro-[2,4′-bipyridine]-6-carboxamide], 28 µM.
On to `Cn1cc(NC(=O)c2cccc(C3CCNCC3)n2)c(-c2ccccn2)n1` [Compound I-63, N-(1-methyl-3-(pyridin-2-yl)-1H-pyrazol-4-yl)-6-(piperidin-4-yl)picolinamide], for which the EC50 is 26.6 µM.
The figure for `Cn1cc(NC(=O)c2cccc(C3=CCCN(C(=O)OC(C)(C)C)C3)n2)c(-c2ccccn2)n1` [Compound I-64, tert-butyl 6-((1-methyl-3-(pyridin-2-yl)-1H-pyrazol-4-yl)carbamoyl)-5′,6′-dihydro-[2,3′-bipyridine]-1′(2′H)-carboxylate] is 13.3 µM; for `COc1ccc(-c2nn(C)cc2NC(=O)c2cccc(-c3cncc(OC(C)C)c3)n2)nc1` [Compound I-70, 5′-isopropoxy-N-(3-(5-methoxypyridin-2-yl)-1-methyl-1H-pyrazol-4-yl)-[2,3′-bipyridine]-6-carboxamide] it is 2.21 µM.
In the case of `Cc1cncc(-c2cccc(C(=O)Nc3cn(C)nc3N3CCCC3)n2)c1` [Compound I-75, 5′-methyl-N-(1-methyl-3-(pyrrolidin-1-yl)-1H-pyrazol-4-yl)-[2,3′-bipyridine]-6-carboxamide], the EC50 came out at 15.9 µM.
With `Cc1cncc(-c2cccc(C(=O)Nc3cn(CCN4CCOCC4)nc3-c3ccccn3)n2)c1` [Compound I-84, 5′-methyl-N-(1-(2-morpholinoethyl)-3-(pyridin-2-yl)-1H-pyrazol-4-yl)-[2,3′-bipyridine]-6-carboxamide], the concentration for a half-maximal effect (EC50) came to 0.444 µM.
As to `CCN(CC)CCn1cc(NC(=O)c2cccc(-c3ccncc3)n2)c(-c2ccccn2)n1` [Compound I-104, N-(1-(2-(diethylamino)ethyl)-3-(pyridin-2-yl)-1H-pyrazol-4-yl)-[2,4′-bipyridine]-6-carboxamide], the 50% effective concentration (EC50) was determined as 74.1 µM.
Regarding `O=C(Nc1c[nH]nc1-c1ccccn1)c1cccc(-c2ccncc2)n1` [Compound I-106, N-(3-(pyridin-2-yl)-1H-pyrazol-4-yl)-[2,4′-bipyridine]-6-carboxamide formate], the EC50 worked out at 4.94 µM.
